In ChEMBL document CHEMBL4411288, “Design, synthesis and biological evaluation of novel 7-amino-[1,2,4]triazolo[4,3-f]pteridinone, and 7-aminotetrazolo[1,5-f]pteridinone derivative as potent antitumor agents” (Eur J Med Chem, 2019) one finds IC50, inhibition and Activity data, which are given here for ten compounds.

Molecules are shown by their SMILES. Calls of active or inactive are those of the source. The rule behind the calls is not given here.

The test system of assay [1] is MDA-MB-231. Briefly: cells. The note with it: Homo sapiens, MDA-MB-231, 72 h.
Description: Cytotoxicity against human MDA-MB-231 cells assessed as reduction in cell viability after 72 hrs by MTT assay
In assay [2] the test system is MCF7. Briefly: cells. The settings on record: Homo sapiens, MCF7, 72 h.
Description: Cytotoxicity against human MCF7 cells assessed as reduction in cell viability after 72 hrs by MTT assay
Assay [3] relates to HCT-116. Kind of assay: Cytotoxicity against human HCT116 cells assessed as reduction in cell viability after 72 hrs by MTT assay. It is filed as functional, cell-based. The settings on record: HCT-116, 72 h.
For assay [4], the target named is Serine/threonine-protein kinase PLK1 (Homo sapiens) (UniProt P53350). Briefly: Inhibition of recombinant human N-terminal His6-tagged PLK1 expressed in baculovirus infected Sf21 insect cells at 1 uM using FAM-labelled peptide as substrate preincubated for 10 mins followed by substrate addition measured after 1 hr relative to control.
Serine/threonine-protein kinase PLK1 (Homo sapiens), sequence (P53350 whole entry): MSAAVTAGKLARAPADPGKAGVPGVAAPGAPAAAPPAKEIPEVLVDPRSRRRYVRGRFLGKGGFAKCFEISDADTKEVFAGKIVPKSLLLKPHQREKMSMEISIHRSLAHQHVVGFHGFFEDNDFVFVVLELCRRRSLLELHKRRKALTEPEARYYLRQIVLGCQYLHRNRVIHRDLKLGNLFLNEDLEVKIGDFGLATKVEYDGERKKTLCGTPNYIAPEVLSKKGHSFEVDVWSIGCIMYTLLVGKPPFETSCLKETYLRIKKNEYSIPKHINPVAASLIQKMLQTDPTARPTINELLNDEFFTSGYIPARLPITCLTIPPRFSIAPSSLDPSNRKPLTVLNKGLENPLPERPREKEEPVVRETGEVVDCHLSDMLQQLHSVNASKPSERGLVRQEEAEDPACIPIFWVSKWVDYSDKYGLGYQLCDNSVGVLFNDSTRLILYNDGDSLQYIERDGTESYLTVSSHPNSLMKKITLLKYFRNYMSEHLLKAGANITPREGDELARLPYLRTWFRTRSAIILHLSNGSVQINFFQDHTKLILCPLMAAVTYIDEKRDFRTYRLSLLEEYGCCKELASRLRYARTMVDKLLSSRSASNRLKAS
Assay [5] concerns A549. Kind of assay: Cytotoxicity against human A549 cells assessed as reduction in cell viability after 72 hrs by MTT assay. It is filed as functional, cell-based. The note with it: A549, 72 h.
Assay [6] has as its system PC-3. Kind of assay: Cytotoxicity against human PC3 cells assessed as reduction in cell viability after 72 hrs by MTT assay. The settings on record: PC-3, 72 h. It is filed as functional, cell-based.
Assay [7] deals with A549. Briefly: Cell cycle arrest in human A549 cells assessed as accumulation at G2 phase at 1 uM after 24 hrs by propidium iodide staining based flow cytometric analysis (reference value: 6.73%). It is filed as functional.
The test system of assay [8] is A549. Briefly: Antimigratory activity in human A549 cells assessed as wound healing at 1 uM after 12 hrs by fluorescence microscopic method (reference value: 26.2%). It is filed as functional.
Assay [9] has as its system A549. Kind of assay: Cell cycle arrest in human A549 cells assessed as accumulation at G1 phase at 5 uM after 24 hrs by propidium iodide staining based flow cytometric analysis (reference value: 63.34%). It is filed as functional.
For assay [10], the system named is A549. Briefly: Cell cycle arrest in human A549 cells assessed as accumulation at G1 phase at 0.2 uM after 24 hrs by propidium iodide staining based flow cytometric analysis (reference value: 63.34%). It is filed as functional.
Assay [11] has as its system A549. Kind of assay: Cell cycle arrest in human A549 cells assessed as accumulation at S phase at 0.2 uM after 24 hrs by propidium iodide staining based flow cytometric analysis (reference value: 29.93%). It is filed as functional.
Assay [12] has as its system A549. Briefly: Cell cycle arrest in human A549 cells assessed as accumulation at G1 phase at 1 uM after 24 hrs by propidium iodide staining based flow cytometric analysis (reference value: 63.34%). It is filed as functional.
Assay [13] has as its system A549. Kind of assay: Antimigratory activity in human A549 cells assessed as wound healing at 0.2 uM after 12 hrs by fluorescence microscopic method (reference value: 26.2%). It is filed as functional.
For assay [14], the system named is A549. Kind of assay: Antimigratory activity in human A549 cells assessed as wound healing at 0.2 uM after 36 hrs by fluorescence microscopic method (reference value: 100%). It is filed as functional.
For assay [15], the system named is A549. Kind of assay: Cell cycle arrest in human A549 cells assessed as accumulation at S phase at 5 uM after 24 hrs by propidium iodide staining based flow cytometric analysis (reference value: 29.93%). It is filed as functional.
Assay [16] concerns A549. Kind of assay: Antimigratory activity in human A549 cells assessed as inhibition of wound healing up to 36 hrs by fluorescence microscopic method. It is filed as functional, cell-based.
Assay [17] has as its system A549. Briefly: Induction of apoptosis in human A549 cells assessed as late apoptotic cells at 5 uM after 24 hrs by acridine orange/ethidium bromide staining-based fluorescence microscopic method. It is filed as functional, cell-based.
In assay [18] the test system is A549. Briefly: Cell cycle arrest in human A549 cells assessed as accumulation at G2 phase at 0.2 uM after 24 hrs by propidium iodide staining based flow cytometric analysis (reference value: 6.73%). It is filed as functional.
For assay [19], the system named is A549. Kind of assay: Induction of apoptosis in human A549 cells assessed as late apoptotic cells at 1 uM after 24 hrs by acridine orange/ethidium bromide staining-based fluorescence microscopic method. It is filed as functional, cell-based.
Assay [20] has as its system A549. Briefly: Antimigratory activity in human A549 cells assessed as wound healing at 1 uM after 36 hrs by fluorescence microscopic method (reference value: 100%). It is filed as functional.
Assay [21] deals with A549. Kind of assay: Cell cycle arrest in human A549 cells assessed as accumulation at S phase at 1 uM after 24 hrs by propidium iodide staining based flow cytometric analysis (reference value: 29.93%). It is filed as functional.
Assay [22] relates to A549. Kind of assay: Cell cycle arrest in human A549 cells assessed as accumulation at G2 phase at 5 uM after 24 hrs by propidium iodide staining based flow cytometric analysis (reference value: 6.73%). It is filed as functional.
The test system of assay [23] is A549. Briefly: Antimigratory activity in human A549 cells assessed as wound healing at 0.2 uM after 24 hrs by fluorescence microscopic method (reference value: 58.5%). It is filed as functional.
The test system of assay [24] is A549. Kind of assay: Antimigratory activity in human A549 cells assessed as wound healing at 1 uM after 24 hrs by fluorescence microscopic method (reference value: 58.5%). It is filed as functional.

In the case of `Cc1nnc2c(=O)n(C3CCCC3)c3nc(Nc4ccc(N5CCN(C)CC5)cc4)ncc3n12`, the IC50 in [1] came out at 610 nM; in [2], 1050 nM; in assay [3] it was 72800 nM; in assay [5], 1920 nM; in assay [6] it was 7610 nM. Also, the inhibition in assay [4] is 26.1%.
`CC1CN(c2ccc(Nc3ncc4c(n3)n(C3CCCC3)c(=O)c3nncn34)cc2)CC(C)N1` (stereo not given): the IC50 in assay [1] stood at 4800 nM; in [2] it was 410 nM; in assay [3] it was 4400 nM; in assay [5], 890 nM; in assay [6], 3260 nM. In assay [4], the inhibition amounted to 72.1%.
As for `CCN1CCN(c2ccc(Nc3ncc4c(n3)n(C3CCCC3)c(=O)c3nnc(C)n34)cc2)CC1`, the IC50 was found to be 2250 nM in assay [1]; 510 nM in [2]; 9610 nM in assay [3]; 680 nM in assay [5]; 5000 nM in [6]. In [4], the inhibition is 44.7%.
On to `CN1CCN(c2ccc(Nc3ncc4c(n3)n(C3CCCC3)c(=O)c3nncn34)cc2)CC1`, for which the IC50 in assay [1] is more than 50000 nM; in [2], more than 50000 nM; in assay [3], 8000 nM; in assay [5], 6960 nM; in assay [6], 26500 nM. The inhibition in assay [4] worked out at 44.2%.
`Cc1nnc2c(=O)n(C3CCCC3)c3nc(Nc4ccc(N5CCN(CCO)CC5)cc4)ncc3n12`: the IC50 in assay [1] was found to be 3350 nM; in assay [2], 750 nM; in assay [3] it was 7610 nM; in [5], 5460 nM; in assay [6] it was 8440 nM. Besides, in [4], the inhibition amounted to 28.2%.
For `Cc1nnc2c(=O)n(C3CCCC3)c3nc(Nc4ccc(N5CC(C)NC(C)C5)cc4)ncc3n12` (stereo not given), the Activity stood at 5.64% in assay [7]; 24.4% in assay [8]; 82.32% in assay [9]; 74.99% in assay [10]; 20.46% in [11]; 79.82% in assay [12]. Also, the Activity turned out to be 25.1% in assay [13]; 51.4% in [14]; 13.37% in assay [15]; 4.55% in assay [18]; 43.1% in assay [20]; 14.54% in assay [21]. For the same compound, the Activity is listed as 4.32% in assay [22], 33.7% in [23] and 27.8% in [24]. Also, the IC50 in assay [1] is 700 nM; in assay [2], 300 nM; in assay [3] it was 300 nM; in assay [5], 160 nM; in [6], 510 nM. For the same compound, the inhibition is 86.4% in assay [4] and “Dose-dependent effect” in [16]. In addition, the result in assay [17] and in [19] was Active.
Turning to `CC[C@@H]1C(=O)N(C)c2cnc(Nc3ccc(C(=O)N[C@H]4CC[C@H](N5CCN(CC6CC6)CC5)CC4)cc3OC)nc2N1C(C)C` [VOLASERTIB], the IC50 amounted to 110 nM in assay [1]; 90 nM in assay [2]; 110 nM in assay [3]; 80 nM in assay [5]; 90 nM in [6]. Moreover, in assay [4], the inhibition amounted to 97.7%.
With `CCN1CCN(c2ccc(Nc3ncc4c(n3)n(C3CCCC3)c(=O)c3nncn34)cc2)CC1`, the IC50 in assay [1] was more than 50000 nM; in assay [2], 980 nM; in assay [3], 7500 nM; in assay [5], 1070 nM; in assay [6], 3480 nM. Moreover, the inhibition in assay [4] amounted to 27.4%.
Take `CC1CN(c2ccc(Nc3ncc4c(n3)n(C3CCCC3)c(=O)c3nnnn34)cc2)CC(C)N1` (stereo not given): the IC50 worked out at 1600 nM in assay [1]; 500 nM in [2]; 600 nM in assay [3]; 440 nM in assay [5]; 1000 nM in assay [6]. In addition, in assay [4], the inhibition turned out to be 77.9%. Besides, the result in assay [17] and in [19] was Active.
In the case of `Cc1nnc2c(=O)n(C3CCCC3)c3nc(Nc4ccc(N5CCN(C6CCCC6)CC5)cc4)ncc3n12`, the IC50 was 9120 nM in assay [1]; more than 50000 nM in [2]; more than 50000 nM in [3]; 11400 nM in assay [5]; more than 50000 nM in assay [6]. Moreover, the inhibition in assay [4] amounted to 31.6%.
